Experimental data from ChEMBL document CHEMBL2074265, “Isolation and characterization of Caco-2 subclones expressing high levels of multidrug resistance protein efflux transporter” (Pharm Res, 2003).

Biological target: ATP-dependent translocase ABCB1 (Homo sapiens, UniProt P08183)
Sequence (P08183 whole entry): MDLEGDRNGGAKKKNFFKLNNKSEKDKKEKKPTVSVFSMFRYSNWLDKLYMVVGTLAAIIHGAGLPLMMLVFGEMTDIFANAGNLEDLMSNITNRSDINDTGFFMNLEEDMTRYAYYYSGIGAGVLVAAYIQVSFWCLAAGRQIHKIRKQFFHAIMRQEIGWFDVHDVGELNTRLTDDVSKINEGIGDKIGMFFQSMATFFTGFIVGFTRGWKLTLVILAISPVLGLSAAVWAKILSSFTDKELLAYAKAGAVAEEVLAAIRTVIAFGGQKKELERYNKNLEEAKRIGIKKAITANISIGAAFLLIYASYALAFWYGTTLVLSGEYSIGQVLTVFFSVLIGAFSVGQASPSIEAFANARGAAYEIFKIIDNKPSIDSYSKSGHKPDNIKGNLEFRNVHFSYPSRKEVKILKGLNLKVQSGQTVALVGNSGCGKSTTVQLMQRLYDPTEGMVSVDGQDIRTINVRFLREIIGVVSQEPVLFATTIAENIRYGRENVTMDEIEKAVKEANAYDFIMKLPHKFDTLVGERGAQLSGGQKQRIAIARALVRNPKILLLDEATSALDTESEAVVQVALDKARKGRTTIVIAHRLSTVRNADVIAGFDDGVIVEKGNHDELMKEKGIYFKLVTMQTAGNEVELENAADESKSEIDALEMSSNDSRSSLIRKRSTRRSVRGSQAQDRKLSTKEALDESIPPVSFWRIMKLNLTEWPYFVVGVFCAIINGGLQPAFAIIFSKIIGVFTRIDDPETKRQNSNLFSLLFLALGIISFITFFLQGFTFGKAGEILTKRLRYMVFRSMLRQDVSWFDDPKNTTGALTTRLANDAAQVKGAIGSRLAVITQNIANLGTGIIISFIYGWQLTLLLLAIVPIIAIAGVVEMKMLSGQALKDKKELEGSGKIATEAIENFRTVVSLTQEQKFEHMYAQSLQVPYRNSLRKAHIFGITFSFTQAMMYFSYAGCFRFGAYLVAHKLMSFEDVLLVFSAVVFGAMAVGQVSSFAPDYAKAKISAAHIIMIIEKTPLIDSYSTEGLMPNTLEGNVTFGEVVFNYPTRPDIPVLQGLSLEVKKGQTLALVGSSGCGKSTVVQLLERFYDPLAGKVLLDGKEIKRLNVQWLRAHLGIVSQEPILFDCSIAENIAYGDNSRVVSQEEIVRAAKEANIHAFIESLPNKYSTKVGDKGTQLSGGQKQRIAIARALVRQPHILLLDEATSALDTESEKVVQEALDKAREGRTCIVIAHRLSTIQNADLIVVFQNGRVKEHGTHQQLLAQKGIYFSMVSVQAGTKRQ
Description: TP_TRANSPORTER: transepithelial transport of digoxin (basal to apical) in Caco-2 cells

- Ki: 2.31 µM
Structure (SMILES): COC(=O)[C@H]1[C@H]2C[C@@H]3c4[nH]c5cc(OC)ccc5c4CCN3C[C@H]2C[C@@H](OC(=O)c2cc(OC)c(OC)c(OC)c2)[C@@H]1OC [RESERPINE]
